The results in this text go back to patent US20260297085A1, “1 H-PYRROLO[2,3-B]PYRIDIN-4-YL]-2-OXOPYRROLIDINE-3-CARBONITRILE DERIVATIVES AS TYROSINE KINASE 2 (TYK2) INHIBITORS FOR THE TREATMENT OF INFLAMMATORY DISEASES” (BIOGEN MA INC., priority 2023, published 2026).

Common to all, as to conditions: JH1 kinase domain, ADP-Glo
Background: In ADP-Glo the light output rises with the ADP produced.

The target in assay [1] is T1, human TYK2 kinase domain (JH1) (Homo sapiens, UniProt P29597).
T1 construct: recombinantly generated catalytic kinase (also known as JH1) domain of human JAK1, JAK2, JAK3 and TYK2
T1 sequence (P29597 897-1176 limits assumed): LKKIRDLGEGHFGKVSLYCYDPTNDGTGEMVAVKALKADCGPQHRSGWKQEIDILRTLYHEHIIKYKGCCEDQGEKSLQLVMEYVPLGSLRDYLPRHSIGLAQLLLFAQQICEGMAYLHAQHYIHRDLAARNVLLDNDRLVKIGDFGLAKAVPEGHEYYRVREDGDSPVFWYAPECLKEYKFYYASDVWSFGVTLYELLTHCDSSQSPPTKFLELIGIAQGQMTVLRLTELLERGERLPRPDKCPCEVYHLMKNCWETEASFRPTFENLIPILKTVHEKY
The experiment in a line: JH1 biochemical assay for TYK2 (ADP-Glo kinase assay, recombinant JH1 catalytic domain, JAK3-974 peptide, 10 μM ATP). The method, boiled down: (§1)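 Reactions ran 100 min with 50 μM substrate peptide (JAK3-342 for JAK1 at 4 nM enzyme; JAK3-974 for JAK2 0.2 nM, JAK3 0.3 nM, TYK2 2 nM), and ADP formed was read by ADP-Glo luminescence. Eleven-point 3-fold series from 10 or 1 μM; IC50 fitted by 4-parameter logistic model.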

Assay [2] has as its target T2, human JAK1 kinase domain (JH1) (Homo sapiens, UniProt P23458).
T2 construct: recombinantly generated catalytic kinase (also known as JH1) domain of human JAK1, JAK2, JAK3 and TYK2
The experiment in a line: JH1 biochemical assay for JAK1 (ADP-Glo kinase assay, recombinant JH1 catalytic domain, JAK3-342 peptide, 35 μM ATP). The method, boiled down: as §1

In assay [3] the target is T3, human JAK2 kinase domain (JH1) (Homo sapiens, UniProt O60674).
T3 construct: recombinantly generated catalytic kinase (also known as JH1) domain of human JAK1, JAK2, JAK3 and TYK2
T3 sequence (O60674 849-1124 limits assumed): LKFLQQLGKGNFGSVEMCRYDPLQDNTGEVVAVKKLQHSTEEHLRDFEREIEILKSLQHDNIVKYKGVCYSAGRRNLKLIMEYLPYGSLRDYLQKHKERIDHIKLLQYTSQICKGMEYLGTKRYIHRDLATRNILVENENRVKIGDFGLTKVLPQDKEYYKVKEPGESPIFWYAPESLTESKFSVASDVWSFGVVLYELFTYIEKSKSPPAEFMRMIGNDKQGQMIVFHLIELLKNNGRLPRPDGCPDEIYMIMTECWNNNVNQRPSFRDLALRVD
The experiment in a line: JH1 biochemical assay for JAK2 (ADP-Glo kinase assay, recombinant JH1 catalytic domain, JAK3-974 peptide, 15 μM ATP). The method, boiled down:
as §1

Assay [4] concerns the target T4, human JAK3 kinase domain (JH1) (Homo sapiens, UniProt P52333).
T4 construct: recombinantly generated catalytic kinase (also known as JH1) domain of human JAK1, JAK2, JAK3 and TYK2
The experiment in a line: JH1 biochemical assay for JAK3 (ADP-Glo kinase assay, recombinant JH1 catalytic domain, JAK3-974 peptide, 4 μM ATP). In short, it runs like this: as §1

Where a name gives a salt, the structure may show the parent alone. A value given as a limit tells only on which side of the number the result lay.

T2 sequence (P23458 875-1153 limits assumed): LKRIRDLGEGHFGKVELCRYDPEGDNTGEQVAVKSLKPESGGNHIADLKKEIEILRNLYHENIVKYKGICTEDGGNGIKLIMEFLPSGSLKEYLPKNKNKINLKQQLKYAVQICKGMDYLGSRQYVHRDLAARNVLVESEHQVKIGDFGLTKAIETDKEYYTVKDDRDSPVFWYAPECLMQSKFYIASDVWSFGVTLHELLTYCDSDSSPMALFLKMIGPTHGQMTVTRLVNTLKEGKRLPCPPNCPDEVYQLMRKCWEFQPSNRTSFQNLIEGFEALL
T4 sequence (P52333 822-1111 limits assumed): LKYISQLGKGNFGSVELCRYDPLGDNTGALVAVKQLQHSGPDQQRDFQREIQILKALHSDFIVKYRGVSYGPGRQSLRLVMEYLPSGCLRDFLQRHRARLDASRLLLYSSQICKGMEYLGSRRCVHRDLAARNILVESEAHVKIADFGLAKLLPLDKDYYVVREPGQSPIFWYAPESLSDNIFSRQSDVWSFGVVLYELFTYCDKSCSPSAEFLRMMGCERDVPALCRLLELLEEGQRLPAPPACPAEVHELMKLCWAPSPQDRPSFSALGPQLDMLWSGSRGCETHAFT

The IC50 is the point on the concentration scale where inhibition reaches its midpoint. As for `C[C@@H]1CN(c2ccnn3cc(-c4ncn(C)n4)cc23)C(=O)[C@]1(C#N)C1CC1` [Example 115, (3R,4S)-3-cyclopropyl-4-methyl-1-(6-(1-methyl-1H-1,2,4-triazol-3-yl)pyrrolo[1,2-b]pyridazin-4-yl)-2-oxopyrrolidine-3-carbonitrile trifluoroacetate], the IC50 was more than 100 nM in assay [1], more than 10000 nM in assay [2], more than 10000 nM in assay [3] and 5000 to 10000 nM in assay [4].
In the case of `C[C@@H]1CN(c2ccnn3cc(-c4cnc5cnccn45)cc23)C(=O)[C@]1(C#N)C1CC1` [Example 116, (3R,4S)-3-cyclopropyl-1-(6-(imidazo[1,2-a]pyrazin-3-yl)pyrrolo[1,2-b]pyridazin-4-yl)-4-methyl-2-oxopyrrolidine-3-carbonitrile trifluoroacetate], the IC50 in assay [1] is 20 to 50 nM; in assay [2], 100 to 1000 nM; in assay [3], 1000 to 5000 nM; in assay [4], 100 to 1000 nM.
Take `C[C@@H]1CN(c2ccnn3cc(-c4ncc(C#N)s4)cc23)C(=O)[C@]1(C#N)C1CC1` [Example 117, 2-(4-((3R,4S)-3-cyano-3-cyclopropyl-4-methyl-2-oxopyrrolidin-1-yl)pyrrolo[1,2-b]pyridazin-6-yl)thiazole-5-carbonitrile trifluoroacetate]: the IC50 fell in the range of 20 to 50 nM in assay [1], 1000 to 5000 nM in assay [2], 1000 to 5000 nM in assay [3] and 1000 to 5000 nM in assay [4].
Regarding `Cc1nc(-c2cc3c(N4C[C@@H](C)[C@@](C#N)(C5CC5)C4=O)ccnn3c2)ccc1C#N` [Example 119, 6-(4-((3R,4S)-3-cyano-3-cyclopropyl-4-methyl-2-oxopyrrolidin-1-yl)pyrrolo[1,2-b]pyridazin-6-yl)-2-methylnicotinonitrile trifluoroacetate], the IC50 in assay [1] was 20 to 50 nM; in assay [2], 1000 to 5000 nM; in assay [3], 1000 to 5000 nM; in assay [4] it was 100 to 1000 nM.
For `C[C@@H]1CN(c2ccnn3cc(-c4nccc(C(F)(F)F)n4)cc23)C(=O)[C@]1(C#N)C1CC1` [Example 120, (3R,4S)-3-cyclopropyl-4-methyl-2-oxo-1-(6-(4-(trifluoromethyl)pyrimidin-2-yl)pyrrolo[1,2-b]pyridazin-4-yl)pyrrolidine-3-carbonitrile trifluoroacetate], the IC50 is more than 100 nM in assay [1], 5000 to 10000 nM in assay [2], more than 10000 nM in assay [3] and 1000 to 5000 nM in assay [4].
In the same order, the values of `C[C@@H]1CN(c2ccnn3cc(-c4cc(C(F)(F)F)ncn4)cc23)C(=O)[C@]1(C#N)C1CC1` [Example 121, (3R,4S)-3-cyclopropyl-4-methyl-2-oxo-1-(6-(6-(trifluoromethyl)pyrimidin-4-yl)pyrrolo[1,2-b]pyridazin-4-yl)pyrrolidine-3-carbonitrile trifluoroacetate] are more than 100 nM, 1000 to 5000 nM, 5000 to 10000 nM and 1000 to 5000 nM.
With `COc1ccnc(-c2cc3c(N4C[C@@H](C)[C@@](C#N)(C5CC5)C4=O)ccnn3c2)n1` [Example 122, (3R,4S)-3-cyclopropyl-1-(6-(4-methoxypyrimidin-2-yl)pyrrolo[1,2-b]pyridazin-4-yl)-4-methyl-2-oxopyrrolidine-3-carbonitrile trifluoroacetate], the IC50 was more than 100 nM in assay [1], 5000 to 10000 nM in assay [2], more than 10000 nM in assay [3] and more than 10000 nM in assay [4].
For `C[C@@H]1CN(c2ccnn3cc(-c4nccn5ccnc45)cc23)C(=O)[C@]1(C#N)C1CC1` [Example 123, (3R,4S)-3-cyclopropyl-1-(6-(imidazo[1,2-a]pyrazin-8-yl)pyrrolo[1,2-b]pyridazin-4-yl)-4-methyl-2-oxopyrrolidine-3-carbonitrile trifluoroacetate], the IC50 in assay [1] was more than 100 nM; in assay [2], more than 10000 nM; in assay [3] it was more than 10000 nM; in assay [4], more than 10000 nM.
With `C[C@@H]1CN(c2ccnn3cc(-c4cccc(CC#N)n4)cc23)C(=O)[C@]1(C#N)C1CC1` [Example 125, (3R,4S)-1-(6-(6-(cyanomethyl)pyridin-2-yl)pyrrolo[1,2-b]pyridazin-4-yl)-3-cyclopropyl-4-methyl-2-oxopyrrolidine-3-carbonitrile trifluoroacetate], the IC50 fell in the range of 20 to 50 nM in assay [1], 100 to 1000 nM in assay [2], 100 to 1000 nM in assay [3] and 100 to 1000 nM in assay [4].
In the case of `COc1cncc(-c2cc3c(N4C[C@@H](C)[C@@](C#N)(C5CC5)C4=O)ccnn3c2)n1` [Example 126, (3R,4S)-3-cyclopropyl-1-(6-(6-methoxypyrazin-2-yl)pyrrolo[1,2-b]pyridazin-4-yl)-4-methyl-2-oxopyrrolidine-3-carbonitrile trifluoroacetate], the IC50 lay in the range of 20 to 50 nM in assay [1], 100 to 1000 nM in assay [2], 100 to 1000 nM in assay [3] and 100 to 1000 nM in assay [4].
As for `C[C@@H]1CN(c2ccnn3cc(-c4nccc(O)c4C#N)cc23)C(=O)[C@]1(C#N)C1CC1` [Example 129, 2-(4-((3R,4S)-3-cyano-3-cyclopropyl-4-methyl-2-oxopyrrolidin-1-yl)pyrrolo[1,2-b]pyridazin-6-yl)-4-hydroxynicotinonitrile trifluoroacetate], the IC50 in assay [1] was more than 100 nM; in assay [2] it was more than 10000 nM; in assay [3], more than 10000 nM; in assay [4], more than 10000 nM.
Take `CC(O)c1ccc(-c2cc3c(N4C[C@@H](C)[C@@](C#N)(C5CC5)C4=O)ccnn3c2)nc1` (stereo partly drawn) [Example 130, (3R,4S)-3-cyclopropyl-1-(6-(5-(1-hydroxyethyl)pyridin-2-yl)pyrrolo[1,2-b]pyridazin-4-yl)-4-methyl-2-oxopyrrolidine-3-carbonitrile trifluoroacetate]: the IC50 lay within 5 to 20 nM in assay [1], 100 to 1000 nM in assay [2], 100 to 1000 nM in assay [3] and 100 to 1000 nM in assay [4].
Consider `COc1cnc(-c2cc3c(N4C[C@@H](C)[C@@](C#N)(C5CC5)C4=O)ccnn3c2)cn1` [Example 132, (3R,4S)-3-cyclopropyl-1-(6-(5-methoxypyrazin-2-yl)pyrrolo[1,2-b]pyridazin-4-yl)-4-methyl-2-oxopyrrolidine-3-carbonitrile trifluoroacetate], for which the IC50 in assay [1] lay in the range of 50 to 100 nM; in assay [2], 1000 to 5000 nM; in assay [3], 1000 to 5000 nM; in assay [4], 1000 to 5000 nM.
With `C[C@@H]1CN(c2ccnn3cc(-c4cncc(C#N)n4)cc23)C(=O)[C@]1(C#N)C1CC1` [Example 133, 6-(4-((3R,4S)-3-cyano-3-cyclopropyl-4-methyl-2-oxopyrrolidin-1-yl)pyrrolo[1,2-b]pyridazin-6-yl)pyrazine-2-carbonitrile trifluoroacetate], the 50% inhibitory concentration (IC50) in assay [1] was 20 to 50 nM; in assay [2], 1000 to 5000 nM; in assay [3], 1000 to 5000 nM; in assay [4], 1000 to 5000 nM.
`COc1cnc(-c2cc3c(N4C[C@@H](C)[C@@](C#N)(C5CC5)C4=O)ccnn3c2)nc1` [Example 136, (3R,4S)-3-cyclopropyl-1-(6-(5-methoxypyrimidin-2-yl)pyrrolo[1,2-b]pyridazin-4-yl)-4-methyl-2-oxopyrrolidine-3-carbonitrile trifluoroacetate]: the IC50 is 50 to 100 nM in assay [1], 1000 to 5000 nM in assay [2], 5000 to 10000 nM in assay [3] and 1000 to 5000 nM in assay [4].
Regarding `Cc1ccc(-c2cc3c(N4C[C@@H](C)[C@@](C#N)(C5CC5)C4=O)ccnn3c2)nn1` [Example 137, (3R,4S)-3-cyclopropyl-4-methyl-1-(6-(6-methylpyridazin-3-yl)pyrrolo[1,2-b]pyridazin-4-yl)-2-oxopyrrolidine-3-carbonitrile trifluoroacetate], the IC50 in assay [1] lay within 20 to 50 nM; in assay [2] it was 1000 to 5000 nM; in assay [3] it was 100 to 1000 nM; in assay [4], 100 to 1000 nM.
Consider `C[C@@H]1CN(c2ccnn3cc(-c4ncccc4F)cc23)C(=O)[C@]1(C#N)C1CC1` [Example 138, (3R,4S)-3-cyclopropyl-1-(6-(3-fluoropyridin-2-yl)pyrrolo[1,2-b]pyridazin-4-yl)-4-methyl-2-oxopyrrolidine-3-carbonitrile trifluoroacetate], for which the IC50 in assay [1] was 20 to 50 nM; in assay [2] it was 100 to 1000 nM; in assay [3] it was more than 10000 nM; in assay [4], 1000 to 5000 nM.
For `C[C@@H]1CN(c2ccnn3cc(-c4ncccn4)cc23)C(=O)[C@]1(C#N)C1CC1` [Example 139, ((3R,4S)-3-cyclopropyl-4-methyl-2-oxo-1-(6-(pyrimidin-2-yl)pyrrolo[1,2-b]pyridazin-4-yl)pyrrolidine-3-carbonitrile trifluoroacetate], the IC50 in assay [1] was more than 100 nM; in assay [2], 1000 to 5000 nM; in assay [3] it was more than 10000 nM; in assay [4], 1000 to 5000 nM.
For the compound `Cc1ccc(O)c(-c2cc3c(N4C[C@@H](C)[C@@](C#N)(C5CC5)C4=O)ccnn3c2)n1` [Example 140, (3R,4S)-3-cyclopropyl-1-(6-(3-hydroxy-6-methylpyridin-2-yl)pyrrolo[1,2-b]pyridazin-4-yl)-4-methyl-2-oxopyrrolidine-3-carbonitrile trifluoroacetate], the IC50 is 50 to 100 nM in assay [1], 1000 to 5000 nM in assay [2], more than 10000 nM in assay [3] and 5000 to 10000 nM in assay [4].
